In patent US11654136B2, “Phosphoinositide 3-kinase inhibitor with a zinc binding moiety” (Curis, Inc., priority 2011, dated 2023):
Entries after “also recorded” stand apart in the source; their conditions may differ.

Key:
[1] = system: marrow lymphocyte progenitor cells; assay: Effect on hematopoietic cells in bone marrow; type: in vivo, mice; settings: 100 mg/kg orally for five consecutive days
Description: Bone marrow was also removed from the mice sacrificed in Example 12. Bone marrow content were collected from the mice long bones and analyzed with flow cytometer. Various markers for progenitor or mature lymphocytes were used.

[2] = system: PI3K-AKT-mTOR pathway, RAF-MEK-ERK pathways, RTK protein levels, p53 and p21; assay: Pharmacodynamics, Western blots of Daudi tumor tissue extracts; type: in vivo, Scid mice; settings: single dose 25, 50 and 100 mg/kg; Daudi tumors
Protocol: Protein was extracted from tumor tissues using a Tissuelyser (Qiagen, Valencia, Calif.) according to the manufacturer's instructions. 30 ug of protein was routinely used for WB analysis as described above. Cell lysates were resolved on NuPAGE Novex 4-12% Bis-Tris gels (Invitrogen) and transferred to nitrocellulose membranes (Bio-Rad Laboratories, Hercules, Calif.). The blots were probed with various primary antibodies overnight at 4° C. GAPDH (glyceraldehyde 3-phosphate dehydrogenase, 1:30,000, Abcam, Cambridge, Mass.) was used as an internal control for each assay. Membranes were then incubated with infrared labeled secondary antibodies (1:10000) conjugated-IR Dye-800 (Rockland Immunochemicals, Inc. Gilbertsville, Pa.) or conjugated-Alexa 680 (Invitrogen). Membranes were imaged with the Odyssey Infrared Imaging System (Li-Cor Biotechnology, Lincoln, Nebr.).

MM1S subcutaneous tumor = assay: MM1S xenograft model; type: in vivo, SCID/Beige mice; settings: oral gavage five times per week
Protocol: Female SCID/Beige mice at age 4 weeks were housed in ventilated micro-isolator cages (INNOCAGE®IVC, Innovive Inc., San Diego, Calif.) in a controlled climate, fed with sterile high-fat diet (Problab-RMH 2000) ad libitum and provided with sterilized water. All housing and supplies for SCID/Beige mice were sterilized by autoclaving before use. Mice were inspected daily including weekends/holidays by trained animal facility personnel and investigators. All animal procedures were performed under sterile conditions within a biosafety cabinet (for injections) or laminar flow hood (for animal husbandry and non-invasive procedures).
MM1S human […] cells (Gold-Leikin R E, et al., J Lab Clin Invest. 1980; 113:335-345) were originally obtained from peripheral blood of a multiple myeloma patient. Cryopreserved cells were thawed in a 37° C. water bath and cultured in RPMI medium plus 10% Fetal Bovine Serum (FBS) in a tissue culture incubator at 5% CO2. Cells were sent to outside vendors for contaminants and rodent pathogen screening intended to rule out contamination by mycoplasma (by PCR) and/or virus (by MAP test, Mouse Antibody Production). […] The implanted mice were monitored for general health and tumor development daily.
Tumors were detectable about two weeks following implantation. Tumor size was measured with a caliper. […]
During each animal study, tumors were measured with calipers, tumor size determined using the above mentioned formula, and tumor size changes in percentage calculated. Mouse body weights were measured with a scale twice per week. […] In addition to the determination of tumor size changes, the last tumor measurement was used to generate the tumor weight change ratio (T/C value), a standard metric developed by the National Cancer Institute (NCI) for xenograft tumor evaluation T/C values were calculated using the following formula: % T/C=100×ΔT/ΔC if ΔT>0. […]
The treatment period was 15 days. Tumor sizes and body weights were measured again on the last day of the study.

[3] = system: Salmonella typhimurium TA98; assay: Mini-Salmonella/mammalian-microsome reverse mutation assay TA98
Protocol: The tester strains used in the mutagenicity assay were Salmonella typhimurium tester strains TA98 (for detecting frame-shift reverse mutation) and TA100 (for detecting point reverse mutation). The assay was conducted in both the presence and absence of S9 mixture along with concurrent vehicle (DMSO, 20 μl/well) and positive controls in duplicate using 6-well plates. […] A reproducible two-fold increase (>2× of vehicle control) of revertant colonies over the daily average control value is considered a positive response of gene mutation for each strain.
2-nitrofluorene and sodium azide served as the positive controls in the absence of S9 for TA98 and TA100 respectively. 2-Aminoanthracene served as the positive controls in the presence of S9 for TA98 and TA100.

COc1ccc(-c2nc(N3CCOCC3)c3sc(CN(C)c4ncc(C(=O)NO)cn4)cc3n2)cn1 [Compound 1, N-hydroxy-2-(((2-(6-methoxypyridin-3-yl)-4-morpholinothieno[3,2-d]pyrimidin-6-yl)methyl)(methyl)amino)pyrimidine-5-carboxamide]
Marrow lymphocyte progenitor cells [1]: induced a compensatory increase in marrow lymphocyte progenitor cells
Pharmacodynamic markers in tumor tissue (Western blots) [2]: inhibits the PI3K-AKT-mTOR pathway, suppresses the RAF-MEK-ERK pathways, downregulates RTK protein levels and up-regulates tumor suppressor p53 and p21 levels
T/C value (MM1S subcutaneous tumor; day 14, p<0.0001): 27.37%
Body weight and side effects (MM1S subcutaneous tumor; single agent, 15 days): No body weight loss or other side effects were observed
Tumor growth (MM1S subcutaneous tumor; single agent, 15 days): inhibited tumor growth
Background Lawn TA98 ([3]; +S9, 62.5 μg/well): 4/4
Revertants per well TA98, Mean ([3]; +S9, 62.5 μg/well): 5
Revertants per well TA98, well 1 ([3]; +S9, 62.5 μg/well): 4
Revertants per well TA98, well 2 ([3]; +S9, 62.5 μg/well): 6
Background Lawn TA98 ([3]; +S9, 125 μg/well): 4/4
Revertants per well TA98, Mean ([3]; +S9, 125 μg/well): 5
Revertants per well TA98, well 1 ([3]; +S9, 125 μg/well): 6
Revertants per well TA98, well 2 ([3]; +S9, 125 μg/well): 3
Background Lawn TA98 ([3]; +S9, 250 μg/well): 4/4
Revertants per well TA98, Mean ([3]; +S9, 250 μg/well): 7
Revertants per well TA98, well 1 ([3]; +S9, 250 μg/well): 8
Revertants per well TA98, well 2 ([3]; +S9, 250 μg/well): 6
Background Lawn TA98 ([3]; +S9, 500 μg/well): 3,sp/3,sp
Revertants per well TA98, Mean ([3]; +S9, 500 μg/well): 6
Revertants per well TA98, well 1 ([3]; +S9, 500 μg/well): 6
Revertants per well TA98, well 2 ([3]; +S9, 500 μg/well): 6
Background Lawn TA98 ([3]; +S9, 1000 μg/well): 3,mp/3,mp
Revertants per well TA98, Mean ([3]; +S9, 1000 μg/well): 7
Revertants per well TA98, well 1 ([3]; +S9, 1000 μg/well): 6
Revertants per well TA98, well 2 ([3]; +S9, 1000 μg/well): 7
Mutagenic response TA98 ([3]; presence and absence of S9, up to 1000 μg/well): no evidence of a significant increase in the mean number of revertant colonies; also recorded: did not induce a positive mutagenic response
Background Lawn TA98 ([3]; −S9, 62.5 μg/well): 4/4
Revertants per well TA98, Mean ([3]; −S9, 62.5 μg/well): 4
Revertants per well TA98, well 1 ([3]; −S9, 62.5 μg/well): 4
Revertants per well TA98, well 2 ([3]; −S9, 62.5 μg/well): 4
Background Lawn TA98 ([3]; −S9, 125 μg/well): 4/4
Revertants per well TA98, Mean ([3]; −S9, 125 μg/well): 5
Revertants per well TA98, well 1 ([3]; −S9, 125 μg/well): 4
Revertants per well TA98, well 2 ([3]; −S9, 125 μg/well): 6
Background Lawn TA98 ([3]; −S9, 250 μg/well): 4,sp/4,sp
Revertants per well TA98, Mean ([3]; −S9, 250 μg/well): 6
Revertants per well TA98, well 1 ([3]; −S9, 250 μg/well): 6
Revertants per well TA98, well 2 ([3]; −S9, 250 μg/well): 5
Background Lawn TA98 ([3]; −S9, 500 μg/well): 3,sp/3,sp
Revertants per well TA98, Mean ([3]; −S9, 500 μg/well): 4
Revertants per well TA98, well 1 ([3]; −S9, 500 μg/well): 5
Revertants per well TA98, well 2 ([3]; −S9, 500 μg/well): 3
Background Lawn TA98 ([3]; −S9, 1000 μg/well): 3,mp/3,mp
Revertants per well TA98, Mean ([3]; −S9, 1000 μg/well): 5
Revertants per well TA98, well 1 ([3]; −S9, 1000 μg/well): 4
Revertants per well TA98, well 2 ([3]; −S9, 1000 μg/well): 5
